One data set has as its system HepG2 cells. In words: Cholesterol biosynthesis in cultured human liver cell line ([1,2-14C]acetate incorporation). The format is cell-based. The settings on record: compared with AY9944 (comparative drug). The procedure: Cultured human liver HepG2 cell line was grown on RPMI (Rosewell park Memorial Institute) 1640 culture medium containing 10% PBS until 60% of monolayer are formed in a 60 mm culture dish. After replacing the medium with 3 ml of a fresh culture medium containing 10% (v/v) LPDS (Fetal calf lipoprotein-deficient serum), the cells were further grown for 48 hours until 90% of cultivation degree appear The culture medium was removed and the cell was then washed with PBS. 2 ml of culture medium containing compound no. 2 (final concentration 100 μM) and AY-9944 (final concentration 1 μM) were added thereto. Then, the medium was cultivated at 37° C. for 1 hour under the condition of 95% air/5% carbonic acid gas. AY-9944 which is an inhibitor for sterol 7-reductase was used as a control drug for assuring the present experimental procedure on the inhibition of cholesterol biosynthesis. Thereafter, 3 μCi of [1,2-^14 C]acetate (72 mCi/mmol) were added thereto. The cultivation was continued for 2 hours so that the isotope is introduced into the cell and used as a precursor for sterol to be synthesized. Then, the culture medium was completely removed and washed with PBS twice and the cells were collected by scratching. 10 μg of cholesterol, 10 μg of lanosterol and [^3 H]cholesterol (30,000 dpm) were added thereto, and saponification reaction was carried out at 70° C. for an hour by adding 7.5% of methanolic KOH solution. Unsaponified sterol was removed by extracting them three times with 3 ml of petroleum ether and dried with nitrogen purging. The dried samples were redissolved in 200 μl of chloroform. An aliquot of the samples was loaded onto Silicagel 60F thin layer plate and then separated using ethyl acetate/hexane 25/75 (v/v) as the developing solvent. The thin layer film was developed by exposure to Amersham Hyperfilm at -70° C. for 7 days. Cholesterol band were confirmed by comparing the band appeared in the film and that appeared in the iodine-stained thin layer. After scratching the cholesterol band, it was quantified by a liquid scintillation counter.

The target of another data set is T1, sterol 14-reductase (Rattus norvegicus, UniProt A0ACM8Q6X4).
T1 construct: microsome which was used as an enzyme source of sterol 14-reductase; from tissue; host or cells: liver microsomes of male Sprague-Dawley rats fed lovastatin and cholestyramine
T1 sequence (A0ACM8Q6X4 1-418): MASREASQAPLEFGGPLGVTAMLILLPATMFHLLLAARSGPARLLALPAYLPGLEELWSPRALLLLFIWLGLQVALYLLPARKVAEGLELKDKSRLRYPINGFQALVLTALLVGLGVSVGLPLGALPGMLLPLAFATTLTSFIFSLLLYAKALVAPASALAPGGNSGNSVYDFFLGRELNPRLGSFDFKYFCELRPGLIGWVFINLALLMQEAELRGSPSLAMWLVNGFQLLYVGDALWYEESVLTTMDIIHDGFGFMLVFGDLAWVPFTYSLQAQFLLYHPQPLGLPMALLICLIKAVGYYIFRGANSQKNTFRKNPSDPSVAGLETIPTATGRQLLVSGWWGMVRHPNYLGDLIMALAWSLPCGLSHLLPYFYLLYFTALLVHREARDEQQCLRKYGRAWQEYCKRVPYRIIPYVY
In words: Inhibition of sterol 14-reductase in rat liver microsomes. The format is biochemical. (In general: Microsomes from liver hold many membrane-bound enzymes, among them those of drug oxidation.)

For another data set, the system named is Syrian Golden Hamster. In words: In vivo effect on plasma lipids in Syrian Golden Hamster. The settings on record: for HDL cholesterol, change versus normal diet control / LDL cholesterol, change versus normal diet control / Total cholesterol, change versus normal diet control / Triglyceride, change versus normal diet control / HDL cholesterol / LDL cholesterol / Total cholesterol / Triglyceride: 14 days; for HDL cholesterol / LDL cholesterol / Total cholesterol / Triglyceride: normal diet, plasma. The procedure: In order to investigate the effect of the compound of formula (I) of the invention, the compound was orally administered into male Syrian Golden Hamsters having weights of 90~110 g for two weeks and blood was then taken from each animal. Plasma lipids, i.e., total cholesterol, LDL-cholesterol,HDL-cholesterol and triglycerides were analyzed using an automatic analyzer (Automatic analyzer model Hitachi 7150).
Male Syrian Golden Hamsters weighing 90~110 g distributed from Samyuk Animal Laboratory, Seoul, Korea were bred under the following conditions: they were maintained under reverse light cycle (light cycle: from 6 P.M to 6 A.M; dark cycle: from 6 A.M. to 6 P.M.). The food and water were supplied at 10 A.M. The commercially available standard rodent chows were used. The hamsters were divided into 6 or 7 animals per group. The animals were fasted for 12 hours before administrating the drug. Then, 5,6-dihydrodibenzo[a,g]quinolizinium salts (compound no. 2) dissolved in a 0.25% methyl cellulose solution was administered orally for 14 days at the indicated time per a day. After fasting animals for 24 hours from the last administration, blood was extracted using a cardiac puncture and plasma was then isolated. Plasma lipids, i.e., total cholesterol, LDL-cholesterol, HDL-cholesterol and triglyceride values were analyzed using Automatic Analyzer (Hitachi 7150).

Data set [1] can be described thus: Acute oral toxicity in SD rats. Type of data set: in vivo. The note with it: rat, in vivo, po, rats. The protocol: (§1) Meanwhile, the toxicity of the compounds of the present invention was investigated as follows: i.e., the compounds were suspended into propylene glycol and then orally administered into each of 5 male and female SD rats at the age of 5-weeks that were fasted for 12 hours. Under the usual breeding conditions, general symptoms, weight change and lethal case of the above rats were monitored for two weeks. At the dose over 2,000 mg/kg of the compound nos. 2, 3, 9 and 68, general symptoms and the body weight change of the animals were normal and the lethal case was not observed.

A further data set relates to SD rats. Nature of the data set: Acute oral toxicity in SD rats. Type of data set: in vivo. The protocol:
as §1

Setting [2] is: read-out: Enzyme Activity (relative in vitro activity for sterol 14-reductase, IC50 class).

Read-outs that look alike come from different tables or passages of the source.

The term LD50 denotes the dose expected to kill half of the subjects tested. As to `CCc1c2[n+](cc3c(OCc4ccc(C(C)(C)C)cc4)c(OC)ccc13)CCc1cc(OC)c(OC)cc1-2` [Compound No. 2, 5,6-dihydro-2,3-dimethoxybenzo[a]-9-[4-(tert-butyl)benzyloxy]-13-ethyl-10-methoxybenzo[g]quinolizinium chloride], the “inhibition of cholesterol biosynthesis in human HepG2 cell line” value with HepG2 cells was “markedly inhibited”. In addition, the IC50 on sterol 14-reductase (rat liver microsome, anaerobic, 10 min at 37° C., read-out: level of compound at which 50% of inhibition of the enzymatic activity was observed) was 0.1 to 0.3 µM. Besides, the IC50 at sterol 14-reductase (setting [2]) is under 1 µM. Also, in the data set with Syrian Golden Hamster (0.3 mg/kg/day oral), the “HDL cholesterol, change versus normal diet control” value was “+11.4%”; the “LDL cholesterol, change versus normal diet control” value was -16.0%; the “Total cholesterol, change versus normal diet control” value is given as -11.5%; the “Triglyceride, change versus normal diet control” value is recorded as -14.6%. In the data set with Syrian Golden Hamster (0.3 mg/kg/day oral), this compound displayed an HDL cholesterol of 66.6 ± 7 mg/dL, an LDL cholesterol of 31.0 ± 3 mg/dL, a Total cholesterol of 115.8 ± 8 mg/dL and a Triglyceride of 67.8 ± 8 mg/dL. Besides, the “total cholesterol, LDL-cholesterol, and triglyceride levels” value with Syrian Golden Hamster (compared with lovastatin) is given as “markedly decreased”. For the same compound, the LD50 at 336 h in data set [1] (female) was over 2000 mg/kg. In data set [1] (male), the LD50 at 336 h is over 2000 mg/kg. In addition, the “general symptoms and the body weight change” value in the data set with SD rats (oral dose over 2,000 mg/kg, monitored for two weeks) is “normal”. Further, the lethal case result in the data set with SD rats (rat, in vivo) is “not observed”.

With `CCc1c2[n+](cc3c(OCc4c(F)c(F)c(C(F)(F)F)c(F)c4F)c(OC)ccc13)CCc1cc(O)c(O)cc1-2` [Compound No. 60, 5,6-dihydro-2,3-dihydroxybenzo[a]-13-ethyl-10-methoxy-9-(2,3,5,6-tetrafluoro-4-trifluoromethyl)benzyloxybenzo[g]quinolizinium chloride], on sterol 14-reductase (setting [2]), the IC50 was under 1 µM.

For `CCCCCCCCCCCCOc1c(OCC)ccc2c(CC)c3[n+](cc12)CCc1cc(OCC)c(OCC)cc1-3` [Compound No. 61, 5,6-dihydro-2,3-diethoxybenzo[a]-9-dodecoxy-10-ethoxy-13-ethylbenzo[g]quinolizinium chloride], the IC50 at sterol 14-reductase (setting [2]) is under 1 µM.

In the case of `CCOc1cc2c(cc1OCC)-c1c(CC)c3ccc(OCC)c(OCc4ccc(C(F)(F)F)cc4)c3c[n+]1CC2` [Compound No. 62, 5,6-dihydro-2,3-diethoxybenzo[a]-10-ethoxy-13-ethyl-9-(4-trifluoromethyl)benzyloxybenzo[g]quinolizinium chloride], the IC50 at sterol 14-reductase (setting [2]) fell in the range of 10 to 100 µM.

Take `CCOc1cc2c(cc1OCC)-c1c(CC)c3ccc(OCC)c(OCc4cccc(C(F)(F)F)c4)c3c[n+]1CC2` [Compound No. 63, 5,6-dihydro-2,3-diethoxybenzo[a]-10-ethoxy-13-ethyl-9-(3-trifluoromethyl)benzyloxyenzo[g]quinolizinium chloride]: the IC50 at sterol 14-reductase (setting [2]) fell in the range of 10 to 100 µM.

For the compound `CCOc1cc2c(cc1OCC)-c1c(CC)c3ccc(OCC)c(OCc4c(F)c(F)c(C(F)(F)F)c(F)c4F)c3c[n+]1CC2` [Compound No. 64, 5,6-dihydro-2,3-diethoxybenzo[a]-10-ethoxy-13-ethyl-9-(2,3,5,6-tetrafluoro-4-trifluoromethyl)-benzyloxy benzo[g]quinolizinium chloride], the IC50 at sterol 14-reductase (setting [2]) lay within 10 to 100 µM.

With `CCOc1cc2c(cc1OCC)-c1c(CC)c3ccc(OCC)c(OCc4ccc(Cl)nc4)c3c[n+]1CC2` [Compound No. 65, 5,6-dihydro-2,3-diethoxybenzo[a]-9-(6-chloropyridine-3-yl)methoxy-10-ethoxy-13-ethylbenzo[g]-quinolizinium chloride], the IC50 on sterol 14-reductase (setting [2]) lay within 10 to 100 µM.

For `CCCOc1cc2c(cc1OCCC)-c1c(CC)c3ccc(OCCC)c(OCc4ccc(C(C)(C)C)cc4)c3c[n+]1CC2` [Compound No. 66, 5,6-dihydro-2,3-dipropoxybenzo[a]-9-[4-(tert-butyl)benzyloxy]-13-ethyl-10-propoxybenzo[g]quinolizinium chloride], on sterol 14-reductase (setting [2]), the IC50 was in the range of 10 to 100 µM.

As to `CCCOc1cc2c(cc1OCCC)-c1c(CC)c3ccc(OCCC)c(OCc4c(F)c(F)c(F)c(F)c4F)c3c[n+]1CC2` [Compound No. 67, 5,6-dihydro-2,3-dipropoxybenzo[a]-13-ethyl-9-(2,3,4,5,6-pentafluoro)benzyloxy-10-propoxybenzo[g]quinolizinium chloride], the IC50 on sterol 14-reductase (setting [2]) fell in the range of 10 to 100 µM.

With `CCc1c2[n+](cc3c(OCc4ccc(C(C)(C)C)cc4)c(OC)ccc13)CCc1cc(OC)c(OC)cc1-2` [Compound No. 69, 5,6-dihydro-2,3-dimethoxybenzo[a]-9-[4-(tert-butyl)-benzyloxy]-13-ethyl-10-methoxybenzo[g]quinolizinium bisulfate], the IC50 at sterol 14-reductase (setting [2]) was 10 to 100 µM.

For the compound `CCc1c2[n+](cc3c(OCc4c(F)c(F)c(F)c(F)c4F)c(OC)ccc13)CCc1cc(OC)c(OC)cc1-2` [Compound No. 70, 5,6-dihydro-2,3-dimethoxybenzo[a]-13-ethyl-10-methoxy-9-(2,3,4,5,6-pentafluoro)benzyloxybenzo[g]quinolizinium acetate], at sterol 14-reductase (setting [2]), the IC50 lay within 10 to 100 µM.

On to `CCc1c2[n+](cc3c(OCc4ccc(Cl)nc4)c(OC)ccc13)CCc1cc(OC)c(OC)cc1-2` [Compound No. 71, 5,6-dihydro-2,3-dimethoxybenzo[a]-9-(6-chloropyridine-3-yl)methoxy-13-ethyl-10-methoxybenzo-[g]quinolizinium nitrate], for which the IC50 on sterol 14-reductase (setting [2]) is 10 to 100 µM.

On to `CCc1c2[n+](cc3c(OCc4ccc(C)c(C)c4)c(OC)ccc13)CCc1cc(OC)c(OC)cc1-2` [compound 27, 5,6-dihydro-2,3-dimethoxybenzo[a]-9-(3,4-dimethyl)benzyloxy-13-ethyl-10-methoxybenzo[g]quinolizinium chloride], for which, on sterol 14-reductase (setting [2]), the IC50 is over 100 µM.

Regarding `CC[C@H](C)C(=O)O[C@H]1C[C@@H](C)C=C2C=C[C@H](C)[C@H](CC[C@@H]3C[C@@H](O)CC(=O)O3)[C@H]21` [lovastatin, reference compound], in the data set with Syrian Golden Hamster (6.0 mg/kg/day oral), the “HDL cholesterol, change versus normal diet control” value is listed as “+11.2%”; the “LDL cholesterol, change versus normal diet control” value is reported as -21.4%; the “Total cholesterol, change versus normal diet control” value is reported as -17.6%; the “Triglyceride, change versus normal diet control” value is on record as -30.1%. In the data set on Syrian Golden Hamster (6.0 mg/kg/day oral), this compound returned an HDL cholesterol of 67.0 ± 3 mg/dL, an LDL cholesterol of 29.1 ± 2 mg/dL, a Total cholesterol of 107.8 ± 9 mg/dL and a Triglyceride of 55.5 ± 7 mg/dL.

The values above are taken from patent US6028197A, “Dibenzo[a,g]quinolizinium derivatives and the salts thereof” (Hanwha Corporation, priority 1998, dated 2000).
